Experimental data published in patent publication US9670242B2, “Tetracyclic anthraquinone derivatives” (Tianjin Hemay Bio-Tech Co., Ltd, priority 2012, dated 2017).

Experiments:
NCI-446 cells = assay: NCI-446 cell growth inhibition test (MTT assay); assay type: cell-based, human; conditions: 72 h
Procedure: NCI-446 Cell Growth Inhibition Test (MTT Assay)
II. Reagents and Consumable Materials Culture medium: 90% RPMI1640+10% FBS (fetal calf serum); Pancreatin (0.25% (w/v) solution was formulated with PBS, 0.53 mM of EDTA was added in the formulation); PBS; 96-well culture plate.
(§1) 1. A plate (10 cm) of cells in logarithmic growth phase that were normally cultured was collected;
2. The culture solution was sucked out. The plate was washed with 5 ml of PBS once or twice;
3. PBS was sucked out. 1.5 mL of 0.25% pancreatin was added to the plate to infiltrate the cells for 1 min;
4. The culture plate was placed in an incubator. Digestion was carried out for about 3 min at 37° C.;
(§2) 5. 3 mL of complete culture solution was added to the culture plate to stop the digestion. The cells were carefully scoured with micropipette (1 mL) to give a uniform cell suspension. The suspension was implanted into a 96-well cell culture disc by 4000 cells/100 μL per well. The culture plate was incubated overnight under 5% CO2 at 37° C. In day 2, 100 μL of culture solution comprising a compound was added in each well. The plate was further incubated for 72 h under 5% CO2 at 37° C.;
6. The culture solution was sucked out;
7. 100 μL of serum-free culture solution containing 0.5 mg/mL MTT was added in each well. The plate was incubated for 3 h;
8. The culture solution was carefully sucked out;
9. […]
10. OD values were determined at 490 nM. […]

SK-Br-3 cells = assay: SK-Br-3 cell growth inhibition test (SRB assay); assay type: cell-based, human; conditions: 72 h
Procedure: SK-Br-3 Cell Growth Inhibition Test (SRB Assay)
II. Reagents and Consumable Materials
Culture medium: 85% DMEM+15% FBS; pancreatin (0.25% (w/v) solution was formulated with PBS, 0.53 mM of EDTA was added in the formulation); PBS; 96-well culture plate.
as §1
2. The culture solution was sucked out. The plate was washed with 5 mL of PBS once or twice;
3. 1.5 mL of 0.25% pancreatin was added to the plate to infiltrate the cells;
4. The pancreatin was sucked out. The culture plate was placed in an incubator. Digestion was carried out for about 2 min at 37° C.;
as §2, with “5. 4” for “5. 3”, “uniform single” for “uniform”, “culture plate” for “culture disc”, “by 10000” for “by 4000”
6. The culture solution was sucked out. 100 uL of TCA fixed cells which were diluted to 10% were added to each well. The plate was kept in a refrigerator for 1 h at 4° C.
7. TCA stationary liquid was sucked out. […]
13. OD values were determined at […]. […]

`COc1cccc2c1C(=O)c1c(O)c3c(c(O)c1C2=O)CC(O)(C(=O)COC(=O)CCC(=O)O)CC3OC1CC(n2cccc2)C(O)C(C)O1` (centres unmarked) [Compound A, 3′-pyrrolyldoxorubicin-14-oxo-succinic acid monoester, reference compound] was tested. Which IC50 (NCI-446 cells) did it give?
The IC50 was 234 nM.

And the IC50 (SK-Br-3 cells)?
Its IC50 is 93 nM.
